From patent US12495798B2, “Nicotinamide compound and herbicidal composition comprising compound” (KOREA RESEARCH INSTITUTE OF CHEMICAL TECHNOLOGY, priority 2019, dated 2025)

Experiments:
Assay type in all cases: in vivo
fall panicum = assay: Herbicidal activity test against upland field weeds (foliar treatment test); set-up: key to Foliar treatment herbicidal activity, Fall panicum: 0 (no control); 100 (complete control); settings: 50 g ai/ha, scale 0-100; for pest or weed control at 50 g/ha: Panicum dichotomiflorum
Protocol: (§1) Experimental Example 1: Herbicidal Activity Test Against Upland Field Weeds (Foliar Treatment Test) Foliar treatment was performed as follows: After filling a square plastic pot having a surface area of 350 cm^2 with horticultural soil, seeds (10˜15 grains) or rootstocks (2 pieces) of 5 kinds of grassy weeds of sorghum, barnyard grass, quack grass, crabgrass, fall panicum, and 5 kinds of broadleaf weeds of black nightshade, indian jointvetch, velvetleaf, cocklebur, bindweed, which had been stored in a low temperature (6° C.), were sown. After growing for a certain period in greenhouse conditions (average temperature 30±5° C., light/dark=14/10 hours), test compound solutions were made by diluting with a preparation solution (including 50% acetone, 0.1% Tween-20) so that the final treatment amount of the test compounds was 50 or 75 g a.i./ha. The prepared test compound solution was used for treating foliage by hand-spraying 14 mL per pot in a fume hood. After the treatment, it was managed under the same greenhouse conditions as above, and after 14 days (after 21 days if necessary), the external symptoms and efficacy were investigated according to the scale of 0 (no control) to 100 (complete control). The results of Table 7 were obtained by evaluating weed control value to the untreated control by conducting visual assessment.

cocklebur = assay: as above; settings: Xanthium strumarium, 50 g ai/ha, scale 0-100
Protocol: as §1

crabgrass = assay: as above; set-up: key to Foliar treatment herbicidal activity, Crabgrass: 0 (no control); 100 (complete control); settings: 50 g ai/ha, scale 0-100
Protocol: as §1

sorghum = assay: as above; set-up: key to Foliar treatment herbicidal activity, Sorghum: 0 (no control); 100 (complete control); settings: 50 g ai/ha, scale 0-100
Protocol: as §1

indian jointvetch = assay: as above; set-up: key to Foliar treatment herbicidal activity, Indian jointvetch: 0 (no control); 100 (complete control); settings: 50 g ai/ha, scale 0-100
Protocol: as §1

quack grass = assay: as above; set-up: key to Foliar treatment herbicidal activity, quack grass: 0 (no control); 100 (complete control); settings: 50 g ai/ha, scale 0-100
Protocol: as §1

velvetleaf = assay: as above; set-up: key to Foliar treatment herbicidal activity, velvet leaf: 0 (no control); 100 (complete control); settings: 50 g ai/ha; for Foliar treatment herbicidal activity, velvet leaf: scale 0-100; for pest or weed control at 50 g/ha: Abutilon theophrasti, scale 0-100, read-out: Foliar treatment herbicidal activity, velvet leaf
Protocol: as §1

black nightshade = assay: as above; settings: Solanum nigrum, 50 g ai/ha, scale 0-100
Protocol: as §1

bindweed = assay: as above; set-up: key to Foliar treatment herbicidal activity, Bindweed: 0 (no control); 100 (complete control); settings: 50 g ai/ha, scale 0-100
Protocol: as §1

barnyard grass = assay: as above; set-up: key to Foliar treatment herbicidal activity, barnyard grass: 0 (no control); 100 (complete control); settings: 50 g ai/ha, scale 0-100
Protocol: as §1

corn = assay: Phytotoxicity test for upland field crops (foliar treatment test); set-up: key: 0 (no harm); 9 (complete withered)
Protocol: (§2) Experimental Example 3: Phytotoxicity Test for Upland Field Crops (Foliar Treatment Test)
(§3) Foliar treatment was performed for grown crops and weeds in a square plastic pot having a surface area of 50 cm^2 filled with horticultural soil. As a fertilizer per pot, 0.5 g of horticultural mixed fertilizer (N:P:K=17:21:17) was treated by mixing in the upper soil. Five kinds of crops such as rice, wheat, corn, soybean, and cotton were sown in each pot, and after growing for a certain period in greenhouse conditions (average temperature 30±5° C., light/dark=14/10 hours), test compound solutions were made by diluting with the diluent (33% acetone, 0.1% Tween-20) so that the final treatment amount of the test compounds was 19˜300 g a.i./ha. The prepared test compound solutions were treated using a spray booth (SB6-016) at a treatment amount of 100 ml per 1 m^2 of treatment area. The treated plants were managed under the same greenhouse conditions as above, and external symptoms and phytotoxicity were investigated 7 and 14 days after treatment (after 21 days if necessary). In the evaluation of the phytotoxicity for the crop, the grade of 0 (no harm) to 9 (complete withered) was used. The results of Table 9 were obtained by evaluating crop phytotoxicity value to the untreated control.

rice = assay: as above; set-up: key: 0 (no harm); 9 (complete withered)
Protocol: as §2, §3

cotton = assay: as above; set-up: key: 0 (no harm); 9 (complete withered)
Protocol: as §2, §3

wheat = assay: as above; set-up: key: 0 (no harm); 9 (complete withered)
Protocol: as §2, §3

soybean = assay: as above; set-up: key: 0 (no harm); 9 (complete withered)
Protocol: as §2, §3

[1] = 50 g ai/ha, Corn (7 days after treatment)
[2] = 50 g ai/ha, Corn (14 days after treatment)
[3] = 100 g ai/ha, Corn (7 days after treatment)
[4] = 100 g ai/ha, Corn (14 days after treatment)
[5] = 50 g ai/ha, Rice (7 days after treatment)
[6] = 50 g ai/ha, Rice (14 days after treatment)
[7] = 100 g ai/ha, Rice (7 days after treatment)
[8] = 100 g ai/ha, Rice (14 days after treatment)
[9] = 50 g ai/ha, Cotton (7 days after treatment)
[10] = 50 g ai/ha, Cotton (14 days after treatment)
[11] = 100 g ai/ha, Cotton (7 days after treatment)
[12] = 100 g ai/ha, Cotton (14 days after treatment)
[13] = 50 g ai/ha, Wheat (7 days after treatment)
[14] = 50 g ai/ha, Wheat (14 days after treatment)
[15] = 100 g ai/ha, Wheat (7 days after treatment)
[16] = 100 g ai/ha, Wheat (14 days after treatment)
[17] = 50 g ai/ha, Soybean (7 days after treatment)
[18] = 50 g ai/ha, Soybean (14 days after treatment)
[19] = 100 g ai/ha, Soybean (7 days after treatment)
[20] = 100 g ai/ha, Soybean (14 days after treatment)

Row | Structure (SMILES) | Foliar treatment herbicidal activity, Fall panicum (fall panicum) | pest or weed control at 50 g/ha (cocklebur) [%] | Foliar treatment herbicidal activity, Crabgrass (crabgrass) | Foliar treatment herbicidal activity, Sorghum (sorghum) | Foliar treatment herbicidal activity, Indian jointvetch (indian jointvetch) | Foliar treatment herbicidal activity, quack grass (quack grass) | Foliar treatment herbicidal activity, velvet leaf (velvetleaf) | pest or weed control at 50 g/ha (black nightshade) [%] | Foliar treatment herbicidal activity, Bindweed (bindweed) | Foliar treatment herbicidal activity, barnyard grass (barnyard grass) | pest or weed control at 50 g/ha (fall panicum) [%] | pest or weed control at 50 g/ha (indian jointvetch) [%] | pest or weed control at 50 g/ha (velvetleaf) [%] | pest or weed control at 50 g/ha (bindweed) [%] | Foliar treatment phytotoxicity, Corn (corn; [1]) | Foliar treatment phytotoxicity, Corn (corn; [2]) | Foliar treatment phytotoxicity, Corn (corn; [3]) | Foliar treatment phytotoxicity, Corn (corn; [4]) | Foliar treatment phytotoxicity, Rice (rice; [5]) | Foliar treatment phytotoxicity, Rice (rice; [6]) | also measured
1 | Cn1nnnc1COc1nc(C(F)(F)F)cc(Cl)c1C(=O)Nc1nnnn1C [Compound No. 1-13, 4-chloro-N-(1-methyl-1H-tetrazol-5-yl)-2-((1-methyl-1H-tetrazol-5-yl)methoxy)-6-(trifluoromethyl)nicotinamide] | 0 | 20 | 0 | 0 | 0 | 0 | 0 | 60 | 0 | 0 | – | – | – | – | – | – | – | – | – | – | –
2 | Cn1nnnc1COc1nc(Cl)ccc1C(=O)Nc1nnnn1C [Compound No. 1-20, 6-chloro-N-(1-methyl-1H-tetrazol-5-yl)-2-((1-methyl-1H-tetrazol-5-yl)methoxy)nicotinamide] | 0 | 20 | 0 | 0 | 0 | 0 | 0 | 50 | 0 | 0 | – | – | – | – | – | – | – | – | – | – | –
3 | Cn1nnnc1NC(=O)c1ccc(C(F)(F)F)nc1COCc1nc(OCC(F)(F)F)n(C)n1 [Compound No. 2-130, N-(1-methyl-1H-tetrazol-5-yl)-2-(((1-methyl-5-(2,2,2-trifluoroethoxy)-1H-1,2,4-triazol-3-yl)methoxy)methyl)-6-(trifluoromethyl)nicotinamide] | – | 60 | – | – | – | 0 | – | 98 | – | – | 70 | 60 | 50 | 70 | – | – | – | – | – | – | pest or weed control at 50 g/ha (crabgrass; Digitaria sanguinalis): 90%; plant injury at 50 g/ha (sorghum; Sorghum): 30%; pest or weed control at 50 g/ha (barnyard grass; Echinochloa crus-galli): 95%
4 | Cn1nnnc1CSc1nc(C(F)(F)F)ccc1C(=S)Nc1nnnn1C [1-44] | – | – | – | – | – | – | – | – | – | – | – | – | – | – | 5 | 3 | 5 | 3 | 6 | 9 | Foliar treatment phytotoxicity, Rice (rice; [7]): 6; Foliar treatment phytotoxicity, Rice (rice; [8]): 9; Foliar treatment phytotoxicity, Cotton (cotton; [9]): 4; Foliar treatment phytotoxicity, Cotton (cotton; [10]): 9; Foliar treatment phytotoxicity, Cotton (cotton; [11]): 5; Foliar treatment phytotoxicity, Cotton (cotton; [12]): 9; Foliar treatment phytotoxicity, Wheat (wheat; [13]): 0; Foliar treatment phytotoxicity, Wheat (wheat; [14]): 0; Foliar treatment phytotoxicity, Wheat (wheat; [15]): 0; Foliar treatment phytotoxicity, Wheat (wheat; [16]): 0; Foliar treatment phytotoxicity, Soybean (soybean; [17]): 6; Foliar treatment phytotoxicity, Soybean (soybean; [18]): 7; Foliar treatment phytotoxicity, Soybean (soybean; [19]): 6; Foliar treatment phytotoxicity, Soybean (soybean; [20]): 7
5 | COC(=O)OC(C)N(C(=O)c1ccc(C(F)(F)F)nc1COCc1ncn(C)n1)c1nnnn1C (stereo not shown) [Compound No. 4-1, methyl(1-(2-(((1-methyl-1H-1,2,4-triazol-3-yl)methoxy)methyl)-N-(1-methyl-1H-tetrazol-5-yl)-6-(trifluoromethyl)nicotinamido)ethyl)carbonate] | – | – | – | – | – | – | – | – | – | – | – | – | – | – | 0 | 0 | 0 | 0 | 2 | 6 | Foliar treatment phytotoxicity, Rice (rice; [7]): 3; Foliar treatment phytotoxicity, Rice (rice; [8]): 7; Foliar treatment phytotoxicity, Cotton (cotton; [9]): 3; Foliar treatment phytotoxicity, Cotton (cotton; [10]): 8; Foliar treatment phytotoxicity, Cotton (cotton; [11]): 3; Foliar treatment phytotoxicity, Cotton (cotton; [12]): 8; Foliar treatment phytotoxicity, Wheat (wheat; [13]): 0; Foliar treatment phytotoxicity, Wheat (wheat; [14]): 0; Foliar treatment phytotoxicity, Wheat (wheat; [15]): 0; Foliar treatment phytotoxicity, Wheat (wheat; [16]): 0; Foliar treatment phytotoxicity, Soybean (soybean; [17]): 4; Foliar treatment phytotoxicity, Soybean (soybean; [18]): 6; Foliar treatment phytotoxicity, Soybean (soybean; [19]): 4; Foliar treatment phytotoxicity, Soybean (soybean; [20]): 8
6 | Cn1nnnc1NC(=O)c1ccc(C(F)(F)F)nc1COCc1nnnn1C(F)F [Compound No. 1-85, 2-(((1-(difluoromethyl)-1H-tetrazol-5-yl)methoxy)methyl)-N-(1-methyl-1H-tetrazol-5-yl)-6-(trifluoromethyl)nicotinamide] | – | 90 | 0 | 0 | – | 0 | – | – | – | 0 | 40 | 40 | 20 | 40 | – | – | – | – | – | – | –
